Where two headings read alike, the source gives them in different places.

In series [1] the test system is Mytilus galloprovincialis plantigrade larvae. Kind of series: M. galloprovincialis larvae anti-settlement bioassay. The series is classed as in vivo. Particulars: for EC50: dose-response, read-out: EC50 (concentration that inhibited 50% of larval settlement); for inhibition at 50 µM: initial screening bioassay at 50 µM, 15 h. As for the experimental part: (§1) The 19 xanthone derivatives were screened for anti-settlement activity toward M. galloprovincialis plantigrade larvae. Samples of M. galloprovincialis juveniles were collected from mussel beds during low tides in the intertidal zone of Memória beach, Matosinhos, Portugal (41°13′59″ N; 8°43′28″ W). Mussel plantigrade larvae (0.5–2 mm) were sorted in a binocular magnifier (Olympus SZX2-ILLT, Tokyo, Japan) and kept in filtered seawater until bioassays preparation. […] Five competent larvae were included per well and four well replicates per condition. Stock solutions (50 mM) in DMSO were used to prepare test media in filtered seawater (0.1%). Negative and positive controls were used, namely DMSO (0.1%) and CuSO4 (5 μM) as an efficient antifouling agent. After exposure, the anti-settlement bioactivity was determined by the observation of efficiently attached plantigrade larvae considering the existence/absence of produced byssal threads for each test condition. Compounds producing more than 50% of settlement inhibition at 50 µM were selected for antifouling effectiveness (EC50) and toxicity (LC50 and therapeutic index) bioassays, according to previously validated experimental conditions.
(§2) Therapeutic ratios (LC50/EC50) were used to evaluate the effectiveness versus toxicity of bioactive compounds. For the differential proteome analysis, non-parametric Kruskall-Wallis (KW) and Mann Whitney (MW) tests were utilized to report protein abundance differences between treatments in MultiExperiment Viewer (MeV) version 4.9 (The Institute for Genomic Research (TIGR), La Jolla, CA, USA) at a confidence level of 95% [34]. The hierarchical clustering of proteins was made using Pearson correlation and average linkage method.

The target in series [2] is T1, Electrophorus electric AChE Type V-S (Electrophorus electricus, UniProt O42275).
T1 construct: purchased SIGMA C2888
T1 sequence (O42275 24-633): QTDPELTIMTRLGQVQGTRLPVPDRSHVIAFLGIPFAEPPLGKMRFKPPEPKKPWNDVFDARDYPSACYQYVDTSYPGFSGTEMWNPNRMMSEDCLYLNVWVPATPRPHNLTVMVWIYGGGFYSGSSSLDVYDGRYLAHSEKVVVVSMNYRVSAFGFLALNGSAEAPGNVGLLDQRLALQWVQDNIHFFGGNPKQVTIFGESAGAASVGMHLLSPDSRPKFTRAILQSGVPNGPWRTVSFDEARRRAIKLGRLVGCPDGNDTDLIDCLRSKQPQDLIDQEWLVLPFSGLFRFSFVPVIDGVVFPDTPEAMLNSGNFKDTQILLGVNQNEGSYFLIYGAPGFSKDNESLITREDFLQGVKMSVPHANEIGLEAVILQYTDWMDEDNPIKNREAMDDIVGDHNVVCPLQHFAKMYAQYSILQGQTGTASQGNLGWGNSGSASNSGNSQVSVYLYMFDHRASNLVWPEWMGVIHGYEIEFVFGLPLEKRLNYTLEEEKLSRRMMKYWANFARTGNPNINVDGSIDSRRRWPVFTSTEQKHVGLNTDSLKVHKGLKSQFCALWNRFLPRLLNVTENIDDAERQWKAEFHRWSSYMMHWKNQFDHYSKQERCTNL
Nature of the series: In vitro determination of acetylcholinesterase (AChE) inhibition activity. Particulars: for AChE inhibition compared to control: 50 µM; for dose-response of AChE activity: Figure 4b. It counts as biochemical. As for the experimental part: AChE inhibition was evaluated as a neurotransmission biomarker for the 19 compounds using Electrophorus electric AChE Type V-S (SIGMA C2888, E.C. 3.1.1.7), according to Ellman et al. (1961) and modified by Almeida et al. (2015). Briefly, 250 μL of the reaction solution containing 30 mL of phosphate buffer, 1mL of the reagent dithiobisnitrobenzoate (DTNB) at 10 mM (acid dithiobisnitrobenzoate and sodium hydrogen carbonate in phosphate buffer), and 200 μL of […] 0.075 M was added to 50 μL of pure AChE (0.25 U.mL^−1) and each test compound at final concentration of 30 μg mL^−1 in quadruplicate. AChE activity was followed at 412 nm during 5 min at 25 °C. Negative and positive controls were included, namely ultra-pure water and eserine (20 mM), respectively, and a blank containing 50 μL of phosphate buffer.

A short description of series [3]: Toxicity (mortality, LC50) to mussel plantigrade larvae in the anti-settlement bioassay. It counts as in vivo, Mytilus galloprovincialis. Particulars: Mytilus galloprovincialis, in vivo, other: immersion in test media in filtered seawater; mussel plantigrade larvae; read-out: LC50 (median lethal dose). How it is done:
as §1, §2

The test system of a further series is Artemia salina nauplii. Kind of series: Brine shrimp (Artemia salina) lethality test. The series is classed as in vivo. Particulars: 25 and 50 µM, 48 h of exposure. How it is done:
Ecotoxicity to non-target species was assessed using the brine shrimp (Artemia salina) lethality test standard protocol. Artemia cysts were cultivated and newly hatched nauplii I were used for the exposure to the most promising antifouling compounds at 50 and 25 µM. The bioassay was performed in 96-well microplates with eight replicates per condition and 15–20 nauplii per well. Positive (K2Cr2O7 at 13.6 µM) and negative (DMSO) controls were included. After 48 h of exposure, the percentage of nauplii mortality was determined.

Series [4] deals with Agaricus bisporus tyrosinase. Kind of series: In vitro determination of tyrosinase inhibition activity. The series is classed as biochemical. As for the experimental part:
Tyrosinase inhibition assays were conducted using Agaricus bisporus tyrosinase (EC 1.14.18.1) according to Adhikari et al. with appropriate adaptations. The enzymatic reaction follows the catalytic conversion of L-Dopa to dopaquinone and the formation of dopachrome by measuring the absorbance at 475 nm. Briefly, 50 µL of tyrosinase (25 U.mL^−1) in 50 mM phosphate buffer pH 6.5, adding the defined concentration of compounds in DMSO. The enzymatic activity was initiated by L-dopa (25 mM). Kojic acid was used as positive control and DMSO as negative control.

For series [5], the system named is Mytilus galloprovincialis plantigrade larvae. Kind of series: Toxicity (mortality, LC50) to mussel plantigrade larvae in the anti-settlement bioassay. It counts as in vivo. As for the experimental part:
as §1, §2

For series [6] the test system is unchanged. Details: method as in PMID 31669574. Particulars: at 108 µM, same bioassay conditions; cited from earlier work.

Usually inhibition stands for the relative decrease from the control value, in per cent. As a reminder, the LC50 is the concentration lethal to half of the exposed cells or organisms. Turning to `O=c1c2ccccc2oc2c(O)cccc12` [Compound 4, 4-hydroxy-], the EC50 in series [1] (Probit regression, 95% CI) worked out at 21.5 µM. Also, in series [1], the EC50 turned out to be 4.55 µg/mL and the inhibition at 50 µM worked out at 70 ± 12.9%. Moreover, in series [2], the “AChE inhibition compared to control” value is recorded as “showed AChE inhibition” and the “dose-response of AChE activity” value was “concentration-dependent modulation of AChE activity”. Also, the median lethal concentration (LC50) at 15 h in series [3] was greater than 500 µM. Also, the Artemia salina mortality in the series on Artemia salina nauplii is reported as greater than 10%.
Turning to `O=c1c2ccccc2oc2ccc(O)c(O)c12` [Compound 5, 1,2-dihydroxy-], the EC50 in series [1] (Probit regression, 95% CI) came to 15.5 µM. In series [1], the EC50 came to 3.52 µg/mL and 50 µM produced 70 ± 12.9% inhibition. Further, in series [2], the “AChE inhibition compared to control” value was “showed AChE inhibition” and the “dose-response of AChE activity” value is recorded as “concentration-dependent modulation of AChE activity”. The LC50 at 15 h in series [3] is greater than 500 µM. Also, the Artemia salina mortality in the series on Artemia salina nauplii is greater than 10%.
Take `O=c1c2ccccc2oc2c(O)c(O)ccc12` [Compound 7, 3,4-dihydroxy-]: the entries for the “induction of tyrosinase activity” value in series [4] (25 μM) and in series [4] (200 μM) were 11.7% and 62.5%, respectively. The EC50 amounted to 11.5 µM in series [1] (Probit regression, 95% CI) and 2.63 µg/mL in series [1]. The same molecule returned an inhibition at 50 µM in series [1] of 65 ± 17.1%. In addition, the LC50 at 15 h in series [3] is greater than 500 µM. The same molecule had an Artemia salina mortality in the series with Artemia salina nauplii of less than 10%.
For the molecule `O=c1c2ccc(O)cc2oc2cc(O)ccc12` [Compound 8, 3,6-dihydroxy-], the “inhibition of tyrosinase activity” value in series [4] (50 µM) is 34%.
Turning to `CC1(C)CCc2cc3c(=O)c4ccccc4oc3c(O)c2O1` [Compound 10, 4-dihydro-12-hydroxy-2,2-dimethyl-2H,6H-pyrano [3,2-b]xanthone], the EC50 in series [1] (Probit regression, 95% CI) worked out at 4.6 µM; in series [1], 1.36 µg/mL. The same molecule displayed an inhibition at 50 µM in series [1] of 75 ± 9.6%. The “mortality of mussel plantigrade larvae” value in series [5] (at 100 µM) is 15%. For the same molecule, the LC50 at 15 h in series [3] was greater than 500 µM. Besides, the Artemia salina mortality in the series on Artemia salina nauplii is less than 10%.
As for `CCCOc1ccc(NCCc2ccc3c(c2)OCO3)c2c(=O)c3ccccc3sc12` [Compound 15, 1-[11]-4-propoxy-9H-thioxanthen-9-one], the EC50 in series [1] (Probit regression, 95% CI) amounted to 28.6 µM. Also, in series [1], the EC50 came out at 12.4 µg/mL and the inhibition at 50 µM came out at 71.2 ± 10.9%. The LC50 at 15 h in series [3] is greater than 500 µM. This molecule also came in with an Artemia salina mortality in the series on Artemia salina nauplii greater than 10%.
As for `CCCOc1ccc(N2CCCCC2)c2c(=O)c3ccccc3sc12` [Compound 17, 1-(piperidin-1-yl)-4-propoxy-9H-thioxanthen-9-one], the EC50 in series [1] (Probit regression, 95% CI) was 3.53 µM. Also, in series [1], the EC50 was found to be 1.25 µg/mL and the inhibition at 50 µM turned out to be 71.7 ± 5%. The “mortality of mussel plantigrade larvae” value in series [5] (at 500 µM) is given as 17%. Moreover, the median lethal concentration (LC50) at 15 h in series [3] is greater than 500 µM. The Artemia salina mortality with Artemia salina nauplii is listed as greater than 10%.
On to `N#Cc1c(-c2ccc(Cl)cc2)[nH]c(C(F)(F)F)c1Br` [ECONEA], for which the “mortality of mussel plantigrade larvae” value in series [6] was 50%.

These data come from PMC7463931, “Structure-Antifouling Activity Relationship and Molecular Targets of Bio-Inspired(thio)xanthones” (Biomolecules, 2020).
